Measured values as given in patent publication US11708359B2, “Monoacylglycerol lipase modulators” (Janssen Pharmaceutica NV, priority 2020, dated 2023).

Each compound was assayed against human MGL from HeLa cells (Homo sapiens (Human), UniProt Q99685) (assay: MGL in vitro activity assay ([glycerol-1,3-3H]-oleoyl glycerol cleavage, activated carbon filter)). Settings: not given.
Sequence of human MGL from HeLa cells (Q99685 whole entry): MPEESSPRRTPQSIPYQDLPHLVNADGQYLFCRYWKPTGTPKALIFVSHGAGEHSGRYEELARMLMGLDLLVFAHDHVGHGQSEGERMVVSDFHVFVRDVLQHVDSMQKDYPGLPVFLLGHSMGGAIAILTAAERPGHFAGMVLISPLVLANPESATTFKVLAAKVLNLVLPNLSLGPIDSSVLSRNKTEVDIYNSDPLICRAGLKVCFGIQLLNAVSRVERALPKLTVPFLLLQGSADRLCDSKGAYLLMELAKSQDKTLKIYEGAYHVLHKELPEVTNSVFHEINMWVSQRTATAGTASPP
Type: biochemical
Method: The assay consists of combining endogenously expressed MGL from HeLa cells with test compounds, adding[glycerol-1,3-^3H]-oleoyl glycerol, incubating for one hour, and then measuring the amount of cleaved[1,3-^3H]-glycerol that passes through an activated carbon filter. The amount of cleaved, tritiated glycerol passing through the carbon filter is proportional to the activity of the MGL enzyme in a particular well/test condition.
Standard conditions for this assay combine 300 nM [Glycerol-1,3-^3H]-oleoyl glycerol with human MGL from HeLa cells and test compounds for one hour, after which the reaction is filtered through activated carbon and tritium is measured in the flow through. […] MGL is the predominant hydrolase in HeLa cells/cell homogenates.
Compound `O=C1N[C@]2(CO1)C[C@H](C(=O)N1CCC3(c4cccc(OC(F)(F)F)c4)CC3C1)C2` (mixture of isomers) [Example 49, (rac)-(2s,4s)-2-(6-(3-(Trifluoromethoxy)phenyl)-3-azabicyclo[4.1.0]heptane-3-carbonyl)-7-oxa-5-azaspiro[3.4]octan-6-one] has an IC50 of 1.6 nM.

Same assay, conditions: 300 nM [Glycerol-1,3-3H]-oleoyl glycerol, endogenously expressed MGL from HeLa cells, one hour incubation; read-out: MGL IC50
In the case of `Cc1ccc(C23CC2CN(C(=O)[C@H]2C[C@]4(COC(=O)N4)C2)C3)cc1C(F)(F)F` (mixture of isomers) [Example 25, (rac)-(2s,4s)-2-(1-(4-Methyl-3-(trifluoromethyl)phenyl)-3-azabicyclo[3.1.0]hexane-3-carbonyl)-7-oxa-5-azaspiro[3.4]octan-6-one], the IC50 is reported as 3.6 nM. In the case of `CC1(c2cccc(C34CC3CN(C(=O)[C@H]3C[C@]5(COC(=O)N5)C3)C4)c2)CC1` (mixture of isomers) [Example 31, (rac)-(2s,4s)-2-(1-(3-(1-Methylcyclopropyl)phenyl)-3-azabicyclo[3.1.0]hexane-3-carbonyl)-7-oxa-5-azaspiro[3.4]octan-6-one], the IC50 is reported as 1.1 nM. Work on `O=C1N[C@]2(CO1)C[C@H](C(=O)N1CC3CC3(c3cccc(Oc4ccccc4)c3)C1)C2` (mixture of isomers) [Example 29, (rac)-(2s,4s)-2-(1-(3-Phenoxyphenyl)-3-azabicyclo[3.1.0]hexane-3-carbonyl)-7-oxa-5-azaspiro[3.4]octan-6-one] yielded an IC50 of 1.5 nM. `O=C1N[C@]2(CO1)C[C@H](C(=O)N1CCC3(c4ccccc4)CC3C1)C2` (mixture of isomers) [Example 39, (rac)-(2s,4s)-2-(6-Phenyl-3-azabicyclo[4.1.0]heptane-3-carbonyl)-7-oxa-5-azaspiro[3.4]octan-6-one] gave an IC50 of 20 nM. `CC1(c2ccc([C@]34C[C@H]3CN(C(=O)[C@H]3C[C@]5(CCC(=O)N5)C3)C4)cc2)CC1` (stereo in doubt) [Example 96, (2r,4*R)-2-((1*S,5*R)-1-(4-(1-Methylcyclopropyl)phenyl)-3-azabicyclo[3.1.0]hexane-3-carbonyl)-5-azaspiro[3.4]octan-6-one] showed an IC50 of 8.5 nM. `CC(C)c1cccc(C23CC2CN(C(=O)[C@H]2C[C@]4(COC(=O)N4)C2)C3)c1` (mixture of isomers) [Example 6, (rac)-(2s,4s)-2-(1-(3-Isopropylphenyl)-3-azabicyclo[3.1.0]hexane-3-carbonyl)-7-oxa-5-azaspiro[3.4]octan-6-one] gave an IC50 of 6.9 nM. `O=C1N[C@]2(CO1)C[C@H](C(=O)N1CCC3(c4cccc(C5CC5)c4)CC3C1)C2` (mixture of isomers) [Example 64, (rac)-(2s,4s)-2-(6-(3-Cyclopropylphenyl)-3-azabicyclo[4.1.0]heptane-3-carbonyl)-7-oxa-5-azaspiro[3.4]octan-6-one] was tested, and the IC50 was 0.65 nM. `CC(C)(C)c1cccc(C23CCN(C(=O)[C@H]4C[C@]5(CCC(=O)N5)C4)CC2C3)c1` (mixture of isomers) [Example 61, (rac)-(2r,4s)-2-(6-(3-(tert-Butyl)phenyl)-3-azabicyclo[4.1.0]heptane-3-carbonyl)-5-azaspiro[3.4]octan-6-one] gave an IC50 of 0.25 nM. With `CCc1ccc([C@H]2[C@@H]3CN(C(=O)[C@H]4C[C@]5(CCC(=O)N5)C4)C[C@@H]32)cc1` [Example 87, (2r,4S)-2-((1R,5S,6S)-6-(4-Ethylphenyl)-3-azabicyclo[3.1.0]hexane-3-carbonyl)-5-azaspiro[3.4]octan-6-one] the IC50 was 131 nM. `O=C1CCC2(CC(C(=O)N3CC[C@]4(c5ccc(OC(F)(F)F)cc5)C[C@@H]4C3)C2)N1` (relative stereo) [Example 122, (2r,4*R)-2-((1*S,6*R)-6-(4-(Trifluoromethoxy)phenyl)-3-azabicyclo[4.1.0]heptane-3-carbonyl)-5-azaspiro[3.4]octan-6-one] was tested, and the IC50 was 12 nM. `Cc1cc(OC(F)(F)F)ccc1C12CC1CN(C(=O)[C@H]1C[C@]3(COC(=O)N3)C1)C2` (mixture of isomers) [Example 34, (rac)-(2s,4s)-2-(1-(2-Methyl-4-(trifluoromethoxy)phenyl)-3-azabicyclo[3.1.0]hexane-3-carbonyl)-7-oxa-5-azaspiro[3.4]octan-6-one] gave an IC50 of 3.1 nM. Work on `O=C1CC[C@]2(C[C@H](C(=O)N3CCC4(c5cccc(OC(F)(F)F)c5)CC4C3)C2)N1` (mixture of isomers) [Example 52, (rac)-(2r,4s)-2-(6-(3-(Trifluoromethoxy)phenyl)-3-azabicyclo[4.1.0]heptane-3-carbonyl)-5-azaspiro[3.4]octan-6-one] yielded an IC50 of 4.8 nM. Compound `CC(C)c1cccc([C@@]23C[C@@H]2CN(C(=O)[C@H]2C[C@]4(COC(=O)N4)C2)C3)c1` (stereo in doubt) [Example 7, (2s,4*5)-2-((1*R,5*5)-1-(3-Isopropylphenyl)-3-azabicyclo[3.1.0]hexane-3-carbonyl)-7-oxa-5-azaspiro[3.4]octan-6-one] has an IC50 of 5 nM. In the case of `Cc1cc(C(F)(F)F)ccc1C12CC1CN(C(=O)[C@H]1C[C@]3(COC(=O)N3)C1)C2` (mixture of isomers) [Example 33, (rac)-(2s,4s)-2-(1-(2-Methyl-4-(trifluoromethyl)phenyl)-3-azabicyclo[3.1.0]hexane-3-carbonyl)-7-oxa-5-azaspiro[3.4]octan-6-one], the IC50 is reported as 2.5 nM. Work on `O=C1N[C@]2(CO1)C[C@H](C(=O)N1CC[C@]3(c4cccc(OC(F)(F)F)c4)C[C@@H]3C1)C2` (stereo in doubt) [Example 50, (2s,4*R)-2-((1*S,6*R)-6-(3-(Trifluoromethoxy)phenyl)-3-azabicyclo[4.1.0]heptane-3-carbonyl)-7-oxa-5-azaspiro[3.4]octan-6-one] yielded an IC50 of 4.2 nM. `O=C1CC[C@]2(C[C@H](C(=O)N3CCC4(c5ccc(OC(F)(F)F)cc5)CC4C3)C2)N1` (mixture of isomers) [Example 55, (rac)-(2r,4s)-2-(6-(4-(Trifluoromethoxy)phenyl)-3-azabicyclo[4.1.0]heptane-3-carbonyl)-5-azaspiro[3.4]octan-6-one] was tested, and the IC50 was 10 nM. `CC(C)(C)c1ccc([C@]23C[C@H]2CN(C(=O)[C@H]2C[C@]4(CCC(=O)N4)C2)C3)cc1` (stereo in doubt) [Example 15, (2r,4*R)-2-((1*S,5*R)-1-(4-(tert-Butyl)phenyl)-3-azabicyclo[3.1.0]hexane-3-carbonyl)-5-azaspiro[3.4]octan-6-one] showed an IC50 of 12 nM. With `O=C1N[C@]2(CO1)C[C@H](C(=O)N1CCC3(c4ccc(C5CC5)cc4)CC3C1)C2` (mixture of isomers) [Example 66, (rac)-(2s,4s)-2-(6-(4-Cyclopropylphenyl)-3-azabicyclo[4.1.0]heptane-3-carbonyl)-7-oxa-5-azaspiro[3.4]octan-6-one] the IC50 was 0.69 nM. Compound `O=C1N[C@]2(CO1)C[C@H](C(=O)N1CCC3(c4ccc(OC(F)(F)F)cc4)CC3C1)C2` (mixture of isomers) [Example 54, (rac)-(2s,4s)-2-(6-(4-(Trifluoromethoxy)phenyl)-3-azabicyclo[4.1.0]heptane-3-carbonyl)-7-oxa-5-azaspiro[3.4]octan-6-one] has an IC50 of 2.5 nM. `Cc1ccc([C@H]2[C@@H]3CN(C(=O)[C@H]4C[C@]5(COC(=O)N5)C4)C[C@@]32C)cc1C(F)(F)F` (racemic) [Example 112, (rac)-(2s,4*S)-2-((1*R,5*S,6*R)-1-Methyl-6-(4-methyl-3-(trifluoromethyl)phenyl)-3-azabicyclo[3.1.0]hexane-3-carbonyl)-7-oxa-5-azaspiro[3.4]octan-6-one] showed an IC50 of 6 nM. `O=C1N[C@]2(CO1)C[C@H](C(=O)N1CC3CC3(c3ccc(C(F)(F)F)cc3)C1)C2` (mixture of isomers) [Example 24, (rac)-(2s,4s)-2-(1-(4-(Trifluoromethyl)phenyl)-3-azabicyclo[3.1.0]hexane-3-carbonyl)-7-oxa-5-azaspiro[3.4]octan-6-one] showed an IC50 of 15 nM. Work on `O=C1CCC2(CC(C(=O)N3CC[C@@]4(c5cccc(OC(F)(F)F)c5)C[C@H]4C3)C2)N1` (relative stereo) [Example 119, (2r,4*5)-2-((1*R,6*5)-6-(3-(Trifluoromethoxy)phenyl)-3-azabicyclo[4.1.0]heptane-3-carbonyl)-5-azaspiro[3.4]octan-6-one] yielded an IC50 of 5.2 nM. In the case of `CC(C)(C)c1ccc(C23CC2CN(C(=O)[C@H]2C[C@]4(CCC(=O)N4)C2)C3)cc1` (mixture of isomers) [Example 13, (rac)-(2r,4s)-2-(1-(4-(tert-Butyl)phenyl)-3-azabicyclo[3.1.0]hexane-3-carbonyl)-5-azaspiro[3.4]octan-6-one], the IC50 is reported as 9.2 nM. For `CC(C)(C)c1ccc([C@H]2[C@@H]3CN(C(=O)[C@H]4C[C@]5(CCC(=O)N5)C4)C[C@@H]32)cc1` [Example 83, (2r,4S)-2-((1R,5S,6S)-6-(4-(tert-Butyl)phenyl)-3-azabicyclo[3.1.0]hexane-3-carbonyl)-5-azaspiro[3.4]octan-6-one], the IC50 was 2.9 nM. With `Cc1cc(C23CC2CN(C(=O)[C@H]2C[C@]4(COC(=O)N4)C2)C3)ccc1C(F)(F)F` (mixture of isomers) [Example 36, (rac)-(2s,4s)-2-(1-(3-Methyl-4-(trifluoromethyl)phenyl)-3-azabicyclo[3.1.0]hexane-3-carbonyl)-7-oxa-5-azaspiro[3.4]octan-6-one] the IC50 was 3.2 nM. `CC(C)(C)c1cccc(C23CCN(C(=O)[C@H]4C[C@]5(COC(=O)N5)C4)CC2C3)c1` (mixture of isomers) [Example 60, (rac)-(2s,4s)-2-(6-(3-(tert-Butyl)phenyl)-3-azabicyclo[4.1.0]heptane-3-carbonyl)-7-oxa-5-azaspiro[3.4]octan-6-one] showed an IC50 of 0.0072 nM. With `Cc1ccc(C23CCN(C(=O)[C@H]4C[C@]5(COC(=O)N5)C4)CC2C3)cc1` (mixture of isomers) [Example 56, (rac)-(2s,4s)-2-(6-(p-Tolyl)-3-azabicyclo[4.1.0]heptane-3-carbonyl)-7-oxa-5-azaspiro[3.4]octan-6-one] the IC50 was 7.7 nM. `Cc1ccc(C23CCN(C(=O)[C@H]4C[C@]5(CCC(=O)N5)C4)CC2C3)cc1Cl` (mixture of isomers) [Example 68, (rac)-(2r,4s)-2-(6-(3-Chloro-4-methylphenyl)-3-azabicyclo[4.1.0]heptane-3-carbonyl)-5-azaspiro[3.4]octan-6-one] gave an IC50 of 5.6 nM.
